Activity coefficient data for 16 compounds are collected here from the NIST ThermoML archive (doi:10.1021/je800658v).

A short description of the data set: activity coefficient (dimensionless); of the first substance listed, at infinite dilution; xn = mol fraction of the nth substance listed. The conditions noted are these: Liquid, inverse gas chromatography, x1 = 0.

± gives the expanded uncertainty stated by the source.

Regarding `Cc1ccccc1` [toluene] + CCCCn1cc[n+](C)c1.F[B-](F)(F)F, the activity coefficient reads like this: (303.35 K) 4.37 ± 0.26; (312.55 K) 3.96 ± 0.24; (322.55 K) 3.97 ± 0.24; (332.55 K) 3.84 ± 0.23.

Turning to `CCC(C)CC` [3-methylpentane] + CCCCn1cc[n+](C)c1.F[B-](F)(F)F, the activity coefficient was 126 ± 7.6 (303.35 K), 94.3 ± 5.7 (312.55 K), 82.9 ± 5 (322.55 K) and 152 ± 9.2 (332.55 K).

`CCN(CC)CC` [triethylamine] + CCCCn1cc[n+](C)c1.F[B-](F)(F)F: the activity coefficient (303.35 K) turned out to be 9.44 ± 0.57, the activity coefficient (312.55 K) was determined as 8.9 ± 0.6, the activity coefficient (322.55 K) was 35.3 ± 2.2 and the activity coefficient (332.55 K) was 59.4 ± 3.6.

`CC#N` [acetonitrile] + CCCCn1cc[n+](C)c1.F[B-](F)(F)F: the activity coefficient is 0.65 ± 0.04 (303.35 K), 0.63 ± 0.04 (312.55 K), 0.64 ± 0.04 (322.55 K) and 0.61 ± 0.04 (332.55 K).

On to `CC1CCCC1` [methylcyclopentane] + CCCCn1cc[n+](C)c1.F[B-](F)(F)F, for which the activity coefficient (303.35 K) came out at 62.2 ± 3.7, the activity coefficient (312.55 K) was determined as 53.5 ± 3.2, the activity coefficient (322.55 K) is 42.8 ± 2.6 and the activity coefficient (332.55 K) was 55.4 ± 3.3.

As to `CC(C)OC(C)C` [diisopropyl ether] + CCCCn1cc[n+](C)c1.F[B-](F)(F)F, the activity coefficient was 30.7 ± 1.8 (303.35 K), 33.5 ± 2 (312.55 K), 26.9 ± 1.6 (322.55 K) and 24.3 ± 1.5 (332.55 K).

`ClC(Cl)(Cl)Cl` [tetrachloromethane] + CCCCn1cc[n+](C)c1.F[B-](F)(F)F: the activity coefficient runs as follows: (303.35 K) 5.53 ± 0.33; (312.55 K) 5.44 ± 0.33; (322.55 K) 5.38 ± 0.32; (332.55 K) 5.2 ± 0.31.

Regarding `CCO` [ethanol] + CCCCn1cc[n+](C)c1.F[B-](F)(F)F, the activity coefficient is, setting by setting: (303.35 K) 2.15 ± 0.13; (312.55 K) 1.91 ± 0.11; (322.55 K) 1.7 ± 0.1; (332.55 K) 1.53 ± 0.09.

For the compound `C[N+](=O)[O-]` [nitromethane] + CCCCn1cc[n+](C)c1.F[B-](F)(F)F, the activity coefficient is, setting by setting: (303.35 K) 0.59 ± 0.04; (312.55 K) 0.56 ± 0.03; (322.55 K) 0.56 ± 0.03; (332.55 K) 0.56 ± 0.03.

On to `CC(C)CO` [2-methyl-1-propanol] + CCCCn1cc[n+](C)c1.F[B-](F)(F)F, for which the activity coefficient is, setting by setting: (303.35 K) 4.17 ± 0.25; (312.55 K) 3.99 ± 0.24; (322.55 K) 3.28 ± 0.2; (332.55 K) 2.84 ± 0.17.

`CCCCCCCC` [octane] + CCCCn1cc[n+](C)c1.F[B-](F)(F)F: the activity coefficient is, setting by setting: (303.35 K) 425 ± 26; (312.55 K) 368 ± 22; (322.55 K) 333 ± 20; (332.55 K) 298 ± 18.

Consider `C#CCCCC` [1-hexyne] + CCCCn1cc[n+](C)c1.F[B-](F)(F)F, for which the activity coefficient is, setting by setting: (303.35 K) 8.29 ± 0.5; (312.55 K) 7.53 ± 0.45; (322.55 K) 7.47 ± 0.45; (332.55 K) 6.82 ± 0.41.

As to `C1CCCCCC1` [cycloheptane] + CCCCn1cc[n+](C)c1.F[B-](F)(F)F, the activity coefficient is, setting by setting: (303.35 K) 78.7 ± 4.7; (312.55 K) 98.2 ± 5.9; (322.55 K) 131 ± 7.9; (332.55 K) 167 ± 10.

For `CC(C)O` [propan-2-ol] + CCCCn1cc[n+](C)c1.F[B-](F)(F)F, the activity coefficient was 3.2 ± 0.19 (303.35 K), 2.76 ± 0.17 (312.55 K), 2.5 ± 0.15 (322.55 K) and 2.15 ± 0.13 (332.55 K).

For the compound `CCc1ccccc1` [ethylbenzene] + CCCCn1cc[n+](C)c1.F[B-](F)(F)F, the activity coefficient (303.35 K) was 7.25 ± 0.44, the activity coefficient (312.55 K) worked out at 6.73 ± 0.4, the activity coefficient (322.55 K) was determined as 6.85 ± 0.41 and the activity coefficient (332.55 K) is 6.51 ± 0.39.

As for `Cc1ccccc1C` [1,2-dimethylbenzene] + CCCCn1cc[n+](C)c1.F[B-](F)(F)F, the activity coefficient runs as follows: (303.35 K) 6.53 ± 0.39; (312.55 K) 5.55 ± 0.33; (322.55 K) 5.83 ± 0.35; (332.55 K) 4.77 ± 0.29.
